Source: patent publication US20120058983A1, “Adenosine A1 agonists for the treatment of glaucoma and ocular hypertension” (BAYER PHARMA AKTIENGESELLSCHAFT, priority 2010, published 2012)

What was measured:
Wistar rats = experiment: IOP measurements in rats (topical administration to the eye; IOP and hemodynamic parameters); format: in vivo, rat
Experimental: Wistar rats with a body weight of about 300 g were anesthetized with isoflurane (2-3% in O2:N2O=1:2). The test compounds were diluted in 0.9% sodium chloride and given by topical administration to the eye in 10 μl volume at a concentration of 10 mg/ml. IOP was measured with a rebound tonometer (TonoLab) at different time points after application of the drugs. Ocular pressure and effects of hemodynamic parameters can be monitored in this model.
N^6-Cyclopentyl-Adenosine and Example 1 reduce IOP at a volume of 10 μl (concentration 10 mg/ml).

rabbits = rabbits (Lit. 6,7,8); cited from earlier work
cynomolgus monkeys = cynomolgus monkeys (Lit. 9); cited from earlier work

| SMILES | effects on mean arterial blood pressure / hemodynamic parameters (Wistar rats; Wistar rats, 10 mg/ml (FIG. 2)) | IOP (Wistar rats; anesthetized Wistar rats, 10 μl volume, concentration 10 mg/ml, rebound tonometer (FIG. 1)) | intraocular pressure (rabbits) | intraocular pressure (cynomolgus monkeys) |
| --- | --- | --- | --- | --- |
| OC[C@H]1O[C@@H](n2cnc3c(NC4CCCC4)ncnc32)[C@H](O)[C@@H]1O [N^6-Cyclopentyl-Adenosine] | significantly reduces blood pressure | reduce IOP |  |  |
| OC[C@H]1O[C@@H](n2cnc3c(NC4CCCCC4)ncnc32)[C@H](O)[C@@H]1O [CHA, N6-cyclohexyl-adenosine] |  |  | lower intraocular pressure | lower intraocular pressure |
| C[C@H](Cc1ccccc1)Nc1ncnc2c1ncn2[C@@H]1O[C@H](CO)[C@@H](O)[C@H]1O [R-PIA, R(−)-N-6-(2-phenylisopropyl)adenosine] |  |  | lower intraocular pressure | lower intraocular pressure |
